Source: PubChem BioAssay AID493013 (Southern Research Specialized Biocontainment Screening …, 2011)
Calls of active or inactive are those of the source. How the calls were made is not given here.

Experiments:
[1] = tested on: mammalian cell line viability, cytotoxicity counter-screen; assay: mammalian cell cytotoxicity, dose response, cytotoxicity control, secondary assay, set 2 (AID 493013)
[2] = as above; conditions: mammalian cell line viability, cytotoxicity counter-screen; at 100 µM (top of the series)

| Structure (SMILES) | CC50 [1] [µM] | viability [2] |
| --- | --- | --- |
| CC(Oc1ccc(Cl)cc1)C(=O)Nc1nc2ccccc2s1 (centres undefined) | 46.4 | – |
| Cc1ccc(OCC(=O)Nc2nc3c(Cl)cccc3s2)cc1 | – | 97% (inactive) |
| CC(=O)c1c(C)n(-c2ccccc2)c2ccc(OC(C)C)cc12 | – | 79.6% (inactive) |
| CCOc1ccc2nc(NC(=O)COc3ccc(F)cc3)sc2c1 | – | 96.4% (inactive) |
| O=C(Cc1csc(-c2ccccc2F)n1)Nc1nc2ccccc2[nH]1 | – | 88.2% (inactive) |
| Cc1ccc(OCC(=O)Nc2nc3ccc(F)cc3s2)cc1 | – | 84.2% (inactive) |
| Cc1ccccc1OCC(=O)Nc1ccccc1-c1ccccc1 | 77 | – |
| Cc1ccc2oc(/N=C(\N)NC(=O)c3ccccc3)nc2c1 | 5.79 | – |
| Cc1c(OCc2ccc(C(=O)O)cc2)ccc2c(-c3ccccc3)cc(=O)oc12 | 51.8 | – |
| O=C(Nc1ccccc1)Nc1csc2ccccc12 | 31.9 | – |
| Cc1cc(C)c(OCC(=O)Nc2nc3ccccc3s2)c(Cl)c1 | – | 83.2% (inactive) |
| Cc1ccccc1C(=O)Nc1nc2ccccc2[nH]1 | 71.4 | – |
| O=C(O)CCC(=O)Nc1nc2ccccc2s1 | – | 98.8% (inactive) |
| COc1cccc(NC(=O)C2CC2)c1 | – | 102% (inactive) |
| CCOc1ccc(NC(=O)COc2ccc(C)cc2C)cc1 | – | 78.7% (inactive) |
| Cc1cccc(C)c1OCC(=O)Nc1nc2ccccc2s1 | – | 84.5% (inactive) |
| CCOc1ccc2nc(NC(=O)C(C)Oc3ccccc3F)sc2c1 (centres undefined) | 67.7 | – |
| Cc1cccnc1NC(=S)NC(=O)c1cncc(Br)c1 | – | 106% (inactive) |
| c1ccc(OCc2nnc(-c3ccccc3)o2)cc1 | – | 72.5% (inactive) |
| Cc1cc2cc(O)ccc2[nH]1 | – | 105% (inactive) |
| Cc1onc(-c2c(Cl)cccc2Cl)c1/C(N)=N/OC(=O)C1CC1 | – | 102% (inactive) |
| COc1ccc2nc(NC(=O)COc3c(C)cc(C)cc3C)sc2c1 | – | 79.6% (inactive) |
| OCCCc1cn(-c2ccccc2)c2ccccc12 | 90 | – |
| CC(=O)c1c(C)n(-c2cccc(Cl)c2)c2ccc(O)cc12 | – | 78.9% (inactive) |
| Cc1ccccc1OCC(=O)Nc1nnn(C)n1 | – | 87.8% (inactive) |

| Structure (SMILES) | CC50 [1] [µM] | viability [2] |
| --- | --- | --- |
| COc1ccc2nc(NC(=O)c3oc4ccccc4c3C)sc2c1 | – | 80.8% (inactive) |
| COc1ccc2nc(NC(=O)COc3ccccc3C(C)C)sc2c1 | – | 93.8% (inactive) |
| COC(=O)c1c(C)n(-c2ccccc2)c2ccc(O)cc12 | 61.3 | – |
| CN(NC(=O)c1c(Cl)cccc1Cl)c1cccc(Cl)n1 | – | 79.9% (inactive) |
| COc1ccc(C(=O)Nc2ccc3nc(N4CCCCC4)cc(C)c3c2)c(OC)c1 | – | 92% (inactive) |
| CCOc1ccc2c(c1)c(C(C)=O)c(C)n2-c1ccccc1 | 94.5 | – |
| CC(=O)c1c(C)n(-c2ccccc2C)c2ccc(O)cc12 | – | 82.3% (inactive) |
| COc1ccc2nc(NC(=O)COc3ccccc3)sc2c1 | – | 83.9% (inactive) |
| COc1cccc(-c2ccc(-c3noc(-c4ccccc4F)n3)c(OC)n2)c1 | 46.7 | – |
| CC(C)Cn1c2c(c(O)c(C(=O)Nc3nccs3)c1=O)CCCC2 | 78 | – |
| CC(=O)c1c(C)n(-c2ccccc2)c2ccc(O)cc12 | – | 80.4% (inactive) |
| COc1ccc2nc(NC(=O)C(C)Oc3ccccc3)sc2c1 (centres undefined) | 87.7 | – |
| CCC(CC)c1nnc(NC(=O)c2ccc(N3CCCCC3)c([N+](=O)[O-])c2)s1 | 41.3 | – |
| O=C(COc1cccc2ccccc12)Nc1nc2ccccc2s1 | 77.7 | – |
| CC(=O)Nc1ccc2nc(NC(=O)Cc3ccccc3)sc2c1 | – | 82.2% (inactive) |
| COC(=O)c1sc(-c2ccc(C(C)(C)C)cc2)cc1NC(=O)CCC(=O)O | 64.7 | – |
| Cc1ccccc1OCC(=O)Nc1ncn[nH]1 | – | 80.5% (inactive) |
| N/C(=N\c1nc2ccccc2o1)NC(=O)c1ccccc1Br | – | 84.6% (inactive) |
| COc1ccc2nc(NC(=O)COc3ccc(C)cc3)sc2c1 | 29.8 | – |
| Cc1cc(C)c(OCC(=O)Nc2nc3ccccc3[nH]2)c(C)c1 | – | 85.7% (inactive) |
| O=C(Nc1nc2ccccc2[nH]1)c1cc2cc(Br)ccc2o1 | 11.5 | – |
| N/C(=N\c1nc2ccccc2o1)NC(=O)c1ccccc1 | 7.4 | – |
| O=C(CSc1n[nH]c(=O)n1C1CC1)c1ccc2c(c1)OCCO2 | – | 94.5% (inactive) |
| COc1ccc(Cl)cc1C(=O)Nc1nc2ccccc2[nH]1 | 25.4 | – |
| Cc1ccccc1OCC(=O)Nc1ccccc1N1CCCCC1 | 51 | – |

| Structure (SMILES) | CC50 [1] [µM] | viability [2] |
| --- | --- | --- |
| N/C(=N\c1nc2cc(Cl)ccc2o1)NC(=O)c1ccccc1 | 14.5 | – |
| Cc1cc2cc(Cl)ccc2[nH]1 | – | 84.1% (inactive) |
| CCOC(=O)c1cnc2cc(-c3ccc(C(C)(C)C)cc3)nn2c1N | 74.6 | – |
| Cc1cc(C)c(OCC(=O)Nc2nc3ccc(C)cc3s2)c(C)c1 | – | 87.7% (inactive) |
| Cc1ccccc1OCC(=O)Nc1noc(-c2ccccc2)n1 | – | 96.4% (inactive) |
| Cc1ccc2sc(NC(=O)COc3ccccc3)nc2c1C | 20.2 | – |
| CCOc1ccc2c(c1)c(C(C)=O)c(C)n2Cc1ccco1 | – | 94.5% (inactive) |
| O=C(Cc1ccccc1Cl)Nc1nc2ccccc2[nH]1 | – | 84.9% (inactive) |
| S=C(Nc1ccccc1)Nc1ccc(Cl)cn1 | – | 97.2% (inactive) |
| Cc1cc2cc(F)ccc2[nH]1 | – | 95% (inactive) |
| O=C(CCS(=O)(=O)c1ccc(F)cc1)Nc1nnc(-c2cccs2)o1 | 41.6 | – |
| CCCN1CC(O)=C(c2nc3ccccc3s2)C1=N | 90.5 | – |
| CCOc1ccc2nc(NC(=O)COc3ccc(Cl)c(C)c3)sc2c1 | 38.6 | – |
| Cc1ccc(OCC(=O)Nc2ccc3c4c(cccc24)CC3)c(C)c1 | 27.2 | – |
| COc1cccc(NC(=S)Nc2cc(C)cc(C)n2)c1 | – | 89.5% (inactive) |
| N/C(=N\c1nc2ccccc2o1)NC(=O)c1ccc(F)cc1 | 12.5 | – |
| CCc1ccc2nc(/N=C(\N)NC(=O)c3ccccc3)nc(C)c2c1 | – | 81.6% (inactive) |
| CC(C)(Oc1ccc(Cl)cc1)C(=O)Nc1nc2ccccc2s1 | 72.3 | – |
| Cc1cc2ccccc2[nH]1 | – | 100% (inactive) |
| O=C(COC(=O)C1=COCCO1)Nc1ccc2c(c1)OCO2 | – | 89% (inactive) |
| Cc1ccc(OCC(=O)Nc2cccc3c(NC(=O)COc4ccc(C)cc4C)cccc23)c(C)c1 | – | 96.3% (inactive) |
| O=C(CC12CC3CC(CC(C3)C1)C2)NCc1ccc(F)cc1 | – | 86.5% (inactive) |
| c1ccc(Nc2ncnc3c2oc2ccccc23)cc1 | 76.9 | – |
| CCCOc1ccc2c(c1)c(C(C)=O)c(C)n2-c1ccccc1 | – | 97.1% (inactive) |
| COC(=O)c1ccc2nc(NC(=O)COc3ccccc3)sc2c1 | – | 88.8% (inactive) |

| Structure (SMILES) | CC50 [1] [µM] | viability [2] |
| --- | --- | --- |
| Oc1ccc2[nH]ccc2c1 | – | 101% (inactive) |
| Cc1ccc(OCC(=O)Nc2nnn(C)n2)c(C)c1 | – | 85.2% (inactive) |
| O=C(COc1ccccc1Cl)Nc1nc2ccccc2s1 | – | 73.1% (inactive) |
| COc1ccc2c(c1)c(C(C)=O)c(C)n2-c1ccccc1 | – | 92.5% (inactive) |
| CCOc1ccc2nc(NC(=O)COc3ccccc3)sc2c1 | – | 76.4% (inactive) |
| O=C(COc1ccc2ccccc2c1)Nc1nc2ccccc2[nH]1 | – | 91.9% (inactive) |
| Cc1ccccc1OCC(=O)Nc1ncccn1 | – | 100% (inactive) |
| CCOc1ccc2c(c1)c(C(C)=O)c(C)n2-c1ccccc1Cl | 47.7 | – |
| N/C(=N\c1nc2ccccc2o1)NC(=O)c1ccccc1F | – | 96.4% (inactive) |
| O=C(COC(=O)C1CC1)c1c[nH]c2ccccc12 | – | 95.5% (inactive) |
| CCOc1ccc2nc(NC(=O)Cc3ccc(OC)cc3)sc2c1 | – | 83.6% (inactive) |
| CCOc1ccc2nc(NC(=O)C3(c4ccccc4)CCCC3)sc2c1 | 62.3 | – |
| Cc1ccc(OC(C)C(=O)Nc2ncccn2)c(C)c1 (centres undefined) | – | 86.1% (inactive) |
| COc1ccccc1C(=O)N/C(N)=N/c1nc2ccccc2o1 | 16.6 | – |
| CC(=O)Nc1ccc2nc(NC(=O)COc3ccccc3)sc2c1 | 49.8 | – |
| O=C(COc1ccccc1)Nc1nc2ccccc2s1 | 66.7 | – |
| COc1ccc2nc(NC(=O)COc3ccc(Cl)cc3)sc2c1 | – | 92.1% (inactive) |
| Cc1ccc(OCC(=O)Nc2ccc(Cl)cc2)c(C)c1 | – | 93.6% (inactive) |
| N/C(=N\c1nc2ccccc2o1)NC(=O)COc1ccc2ccccc2c1 | 37.3 | – |
| O=C(OC(C(=O)Nc1ccc(Cl)cc1C(F)(F)F)c1ccccc1)C1=COCCO1 (centres undefined) | – | 72.7% (inactive) |
| O=C(COc1ccc(Cl)cc1)Nc1nc2ccc(F)cc2s1 | 57.2 | – |
| O=C(COc1ccc2c3c(c(=O)oc2c1)CCC3)Nc1nc2ccccc2[nH]1 | 23.4 | – |
| CCOc1ccc2nc(NC(=O)COc3ccc(OC)cc3)sc2c1 | – | 102% (inactive) |
| O=C(Nc1nc2ccccc2[nH]1)c1ccc(Cl)c(Cl)c1 | 83.6 | – |
